According to patent US4816472A, “Derivatives of 19,20-Bis-nor-prostanoic acid with antiulcer and anorectic activity, process for their preparation and pharmaceutical compositions thereof” (Istituto Biochemico Italiano Giovanni Lorenzini S.p.A., priority 1985, dated 1989):
Counter-ions that a name gives are not always drawn.

Legend:
peptic ulcer = conditions: previous finding; cited from earlier work
[1] = system: ethanol induced ulcers in the rat; assay: Ethanol induced ulcers in the rat; assay type: in vivo
Description: (§1) The anitulcer activity of these derivatives was evaluated on ulcers induced by the administration of ethanol, hydrochloric acid and sodium hydroxide in the rat, also on gastric ulcers induced by aspirin in the rat, and on their influence on gastric secretions in the rat.
(1) Ethanol induced ulcers in the rat:
The method used is that described by A. Robert et al, in Gastroenterology 77,433 (1979), the disclosure of which is incorporated herein by reference.

[2] = system: HCl induced ulcers in the rat; assay: Hydrochloric acid induced ulcers in the rat; assay type: in vivo
Description: as §1
(2) Hydrochloric acid induced ulcers in the rat:
The method used for this test is that described by A. Robert et al, in Gastroenterology, 77,433, (1979), the disclosure of which is incorporated herein by reference.

[3] = system: NaOH induced ulcers in the rat; assay: Sodium hydroxide induced ulcers in the rat; assay type: in vivo
Description: as §1
(3) Sodium hydroxide induced ulcers in the rat:
Also this test is performed in accordance with the method described by A. Robert et al, in Gastroenterology, 77,433 (1979), the disclosure of which is incorporated herein by reference.

SMILES: CCCCCCC1CCC(O)C1CCCCCCC(=O)O (stereo not drawn) [Rosaprostol, 9-hydroxy-91,20-bis-nor-prostanoic acid sodium salt]
- antiulcer properties of the natural prostaglandins / other prostaglandin properties (peptic ulcer): maintaining the antiulcer properties of the natural prostaglandins, completely loses the others

SMILES: CCCCCCC1CCC(N)C1CCCCCCC(=O)O (stereo not drawn) [drawing 8]
- Percent inhibition of ethanol induced ulcers in the rat ([1]; 2.5 mg/kg): 40%
- Percent inhibition of ethanol induced ulcers in the rat ([1]; 5 mg/kg): 50%
- Percent inhibition of ethanol induced ulcers in the rat ([1]; 10 mg/kg): 70%
- Percent inhibition of ethanol induced ulcers in the rat ([1]; 25 mg/kg): 67%
- Percent inhibition of ethanol induced ulcers in the rat ([1]; 50 mg/kg): 88%

SMILES: CCCCCCC1CCC(NC)C1CCCCCCC(=O)O (stereo not drawn) [drawing 9]
- Percent inhibition of ethanol induced ulcers in the rat ([1]; 5 mg/kg): 44%
- Percent inhibition of ethanol induced ulcers in the rat ([1]; 10 mg/kg): 67%
- Percent inhibition of ethanol induced ulcers in the rat ([1]; 25 mg/kg): 86%
- Percent inhibition of ethanol induced ulcers in the rat ([1]; 50 mg/kg): 91%
- Percent inhibition of ethanol induced ulcers in the rat ([1]; 100 mg/kg): 91%

SMILES: CCCCCCC1CCC(N(C)C)C1CCCCCCC(=O)O (stereo not drawn) [drawing 10]
- Percent inhibition of ethanol induced ulcers in the rat ([1]; 2.5 mg/kg): 24%
- Percent inhibition of ethanol induced ulcers in the rat ([1]; 5 mg/kg): 43%
- Percent inhibition of ethanol induced ulcers in the rat ([1]; 10 mg/kg): 62%
- Percent inhibition of ethanol induced ulcers in the rat ([1]; 50 mg/kg): 97%
- Percent inhibition of ethanol induced ulcers in the rat ([1]; 100 mg/kg): 91%

SMILES: CCCCCCC1CCC(NC(C)C)C1CCCCCCC(=O)O (stereo not drawn) [drawing 11]
- Percent inhibition of ethanol induced ulcers in the rat ([1]; 10 mg/kg): 9%
- Percent inhibition of ethanol induced ulcers in the rat ([1]; 25 mg/kg): 34%
- Percent inhibition of ethanol induced ulcers in the rat ([1]; 50 mg/kg): 65%

SMILES: CCCCCCC1CCC(NC(C)=O)C1CCCCCCC(=O)O (stereo not drawn) [drawing 12]
- Percent inhibition of ethanol induced ulcers in the rat ([1]; 10 mg/kg): 25%
- Percent inhibition of ethanol induced ulcers in the rat ([1]; 100 mg/kg): 78%

SMILES: CCCCCCC1CCC(O)C1CCCCCCC(=O)O (stereo not drawn) [drawing 13]
- Percent inhibition of ethanol induced ulcers in the rat ([1]; 50 mg/kg): 9%
- Percent inhibition of ethanol induced ulcers in the rat ([1]; 100 mg/kg): 37%

SMILES: CCCCCCC1CCC(N)C1CCCCCCC(=O)O (stereo not drawn) [drawing 14]
- Percent inhibition of HCl induced ulcers in the rat ([2]; 50 mg/kg): 68%
- Percent inhibition of HCl induced ulcers in the rat ([2]; 100 mg/kg): 89%
- Percent inhibition of HCl induced ulcers in the rat ([2]; 200 mg/kg): 91%

SMILES: CCCCCCC1CCC(NC)C1CCCCCCC(=O)O (stereo not drawn) [drawing 15]
- Percent inhibition of HCl induced ulcers in the rat ([2]; 25 mg/kg): 40%
- Percent inhibition of HCl induced ulcers in the rat ([2]; 50 mg/kg): 49%
- Percent inhibition of HCl induced ulcers in the rat ([2]; 100 mg/kg): 66%

SMILES: CCCCCCC1CCC(N(C)C)C1CCCCCCC(=O)O (stereo not drawn) [drawing 16]
- Percent inhibition of HCl induced ulcers in the rat ([2]; 25 mg/kg): 23%
- Percent inhibition of HCl induced ulcers in the rat ([2]; 50 mg/kg): 55%
- Percent inhibition of HCl induced ulcers in the rat ([2]; 100 mg/kg): 63%

SMILES: CCCCCCC1CCC(NC(C)C)C1CCCCCCC(=O)O (stereo not drawn) [drawing 17]
- Percent inhibition of HCl induced ulcers in the rat ([2]; 25 mg/kg): 0%
- Percent inhibition of HCl induced ulcers in the rat ([2]; 50 mg/kg): 46%
- Percent inhibition of HCl induced ulcers in the rat ([2]; 100 mg/kg): 54%

SMILES: CCCCCCC1CCC(NC(C)=O)C1CCCCCCC(=O)O (stereo not drawn) [drawing 18]
- Percent inhibition of HCl induced ulcers in the rat ([2]; 25 mg/kg): 15%
- Percent inhibition of HCl induced ulcers in the rat ([2]; 50 mg/kg): 66%

SMILES: CCCCCCC1CCC(O)C1CCCCCCC(=O)O (stereo not drawn) [drawing 19]
- Percent inhibition of HCl induced ulcers in the rat ([2]; 25 mg/kg): 15%
- Percent inhibition of HCl induced ulcers in the rat ([2]; 100 mg/kg): 45%
- Percent inhibition of HCl induced ulcers in the rat ([2]; 200 mg/kg): 63%

SMILES: CCCCCCC1CCC(N)C1CCCCCCC(=O)O (stereo not drawn) [drawing 20]
- Percent inhibition of NaOH induced ulcers in the rat ([3]; 5 mg/kg): 37%
- Percent inhibition of NaOH induced ulcers in the rat ([3]; 10 mg/kg): 54%
- Percent inhibition of NaOH induced ulcers in the rat ([3]; 25 mg/kg): 80%

SMILES: CCCCCCC1CCC(NC)C1CCCCCCC(=O)O (stereo not drawn) [drawing 21]
- Percent inhibition of NaOH induced ulcers in the rat ([3]; 12.5 mg/kg): 81%
- Percent inhibition of NaOH induced ulcers in the rat ([3]; 25 mg/kg): 87%

SMILES: CCCCCCC1CCC(N(C)C)C1CCCCCCC(=O)O (stereo not drawn) [drawing 22]
- Percent inhibition of NaOH induced ulcers in the rat ([3]; 12.5 mg/kg): 52%
- Percent inhibition of NaOH induced ulcers in the rat ([3]; 25 mg/kg): 63%
- Percent inhibition of NaOH induced ulcers in the rat ([3]; 50 mg/kg): 74%

SMILES: CCCCCCC1CCC(NC(C)C)C1CCCCCCC(=O)O (stereo not drawn) [drawing 23]
- Percent inhibition of NaOH induced ulcers in the rat ([3]; 12.5 mg/kg): 13%
- Percent inhibition of NaOH induced ulcers in the rat ([3]; 25 mg/kg): 46%
- Percent inhibition of NaOH induced ulcers in the rat ([3]; 50 mg/kg): 54%

SMILES: CCCCCCC1CCC(NC(C)=O)C1CCCCCCC(=O)O (stereo not drawn) [drawing 24]
- Percent inhibition of NaOH induced ulcers in the rat ([3]; 12.5 mg/kg): 7%
- Percent inhibition of NaOH induced ulcers in the rat ([3]; 25 mg/kg): 19%
- Percent inhibition of NaOH induced ulcers in the rat ([3]; 50 mg/kg): 59%
